Drawing on BindingDB's records for doi:10.1007/s10822-022-00478-x (Roche Innovation Center Basel, F. Hoffmann-La Roche Ltd., 2022), this text covers IC50 for 59 molecules.

The test has as its target cAMP and cAMP-inhibited cGMP 3',5'-cyclic phosphodiesterase 10A (Homo sapiens, UniProt Q9Y233). Description: PDE10A assay. An outline of the steps: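 Human PDE10A (2 ng/well) preincubated 15 min RT with compound in HEPES pH 7.5, 10 mM MgCl2, BSA, then reacted 15 min with 50 nM [3H]cGMP/cGMP substrate. Stopped with Y-Si SPA beads; bound radioactivity counted, IC50 from four-parameter logistic, pIC50 = −log10(IC50).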

One may read the IC50 as the concentration that gives 50% inhibition. A higher IC50 goes with weaker potency.

`Cc1c(Br)cn2nc(/C=C/c3nc(N4CCCC4)n(C)n3)nc2c1C` [Roche-Dataset for PDE10A, Compound 364] displayed a half-maximal inhibitory concentration (IC50) of 73 nM.

For `O=C(Nc1ccnn1CCO)c1nc(C2CC2)ccc1Nc1cncnc1` [Roche-Dataset for PDE10A, Compound 860], the IC50 is 49 nM.

Regarding `CCNC(=O)c1c(NC(=O)c2c(C(=O)N3CCC3)cnn2C)cnn1CC` [Roche-Dataset for PDE10A, Compound 1076], the IC50 worked out at 1920 nM.

As for `Cn1ncc(C(=O)N2CCC2)c1C(=O)Nc1cc(C2CCCCC2)n(C2CCCC2)n1` [Roche-Dataset for PDE10A, Compound 1101], half-maximal inhibition (IC50) required 783 nM.

With `CCOc1ccccc1C(=O)Nc1cc(-c2ccccn2)n[nH]1` [Roche-Dataset for PDE10A, Compound 876], it took 1480 nM to reach half-maximal inhibition (IC50).

For `COCC1(CNC(=O)c2nc(C3CC3)cnc2Nc2cncnc2)CC1` [Roche-Dataset for PDE10A, Compound 1010], inhibition was half-maximal at 1790 nM (IC50). The IC50 values of the last two molecules are within 1.5-fold of each other.

As to `Cn1ncc(C(=O)N2CCC2)c1C(=O)Nc1ccn2nc(-c3cccc(OCF)c3)nc2c1` [Roche-Dataset for PDE10A, Compound 96], the IC50 came to 0.85 nM.

In turn, `CC(C)(O)CNC(=O)c1cc(OCCO)ccc1NC(=O)c1nc(C2CC2)cnc1Nc1cncnc1` [US8703768, 215] registered a half-inhibitory concentration (IC50) of 0.49 nM. This IC50 lies about 1.7-fold lower than the previous one.

Take `COc1ccccc1-c1cn2c(n1)C[C@H](NC(=O)c1c(C(=O)N3CCC3)cnn1C)CC2` [Roche-Dataset for PDE10A, Compound 330]: half-maximal inhibition (IC50) was put at 3.76 nM.

In turn, `O=C(NCC(F)(F)F)c1nc(C2CC2)cnc1Nc1cncnc1` [Roche-Dataset for PDE10A, Compound 1124] displayed an IC50 of 1240 nM.

Regarding `Cc1cnn2c(C)c(CCc3nc(N4CCCC4)nn3C)nc2c1C` [Roche-Dataset for PDE10A, Compound 216], the half-inhibitory concentration (IC50) was 20 nM.

`Cc1cnc(C)n2nc(CCc3nc(N4CCNC(=O)C4)nn3C)nc12` [Roche-Dataset for PDE10A, Compound 483] showed an IC50 of 848 nM.

With `Cc1nc(C)n2nc(/C=C/c3nc(N4CCCC4)nn3C)nc2c1C` [Roche-Dataset for PDE10A, Compound 293], the IC50 was determined as 9.16 nM.

As to `Cc1ncc(C(C)C)c2nc(CCc3nc(N4CCCC4)nn3C)nn12` [Roche-Dataset for PDE10A, Compound 672], 7.01 nM corresponded to half-maximal inhibition (IC50).

With `O=C(Nc1cnn(Cc2ccccc2)c1)c1nc(C2CC2)ccc1Nc1cncnc1` [Roche-Dataset for PDE10A, Compound 614], the half-maximal inhibitory concentration (IC50) came out at 69 nM. Against the preceding molecule, the IC50 is about 9.8-fold higher.

On to `Cc1ncc(C(=O)Nc2ccn3nc(-c4ccccc4)nc3c2)cn1` [Roche-Dataset for PDE10A, Compound 813], for which the 50% inhibitory concentration (IC50) came to 10000 nM.

`Cc1[nH]c(-c2ccncc2)nc1CCN1C(=O)c2ccccc2C1=O` [Roche-Dataset for PDE10A, Compound 395] registered an IC50 of 17400 nM.

`Cn1ncc(C(=O)N2CCC2)c1C(=O)Nc1ccc2sc(-c3ccccc3)nc2c1` [Roche-Dataset for PDE10A, Compound 174] gave a concentration for half-maximal inhibition (IC50) of 0.77 nM.

As for `CN(C)c1nc(OCc2cc3ccccn3n2)nc2ccc(Cl)cc12` [Roche-Dataset for PDE10A, Compound 586], the IC50 is 423 nM.

`COCc1cc(C(=O)Nc2ccn3nc(-c4ccccc4)nc3c2)n(C)n1` [Roche-Dataset for PDE10A, Compound 390] came in with a half-inhibitory concentration (IC50) of 87 nM.

In the case of `CC(C)(C)CC(C)(C)NC(=O)c1nc(C2CC2)cnc1Nc1cncnc1` [Roche-Dataset for PDE10A, Compound 976], the IC50 was 826 nM.

`O=C(NCCCS(=O)(=O)c1ccccc1)c1nc(C2CC2)cnc1Nc1cncnc1` [Roche-Dataset for PDE10A, Compound 665] showed an IC50 of 822 nM.

For `Cc1cc(-n2nc(CCc3nc4c(C(F)(F)F)cc(Cl)c(C)n4n3)nc2N2CCCC2)ccn1` [Roche-Dataset for PDE10A, Compound 40], half-maximal inhibition (IC50) was put at 9.83 nM.

Consider `Cc1ncc(NC(=O)c2nc(C3CC3)cnc2Nc2cncnc2)c(C(=O)NCC(C)(C)O)n1` [US8703768, 281], for which half-maximal inhibition (IC50) was put at 0.64 nM. This IC50 lies about 15-fold lower than the previous one.

Turning to `Cc1c(Cl)cc(OCC(F)(F)F)c2nc(CCc3nc(N4CCCC4)nn3C)nn12` [Roche-Dataset for PDE10A, Compound 119], inhibition was half-maximal at 0.5 nM (IC50).

Molecule `Cn1ncc(C(=O)N2CCC2)c1C(=O)Nc1ccn(C2CCC2)n1` [Roche-Dataset for PDE10A, Compound 1093] yielded an IC50 of 496 nM.

Molecule `Cn1ncc(C(=O)N2CCOCC2)c1C(=O)N[C@@H]1CCn2cc(-c3ccc(F)cc3)nc2C1` [Roche-Dataset for PDE10A, Compound 346] returned an IC50 of 4340 nM.

Turning to `CSc1ncc(Nc2cncnc2)c(C(=O)Nc2cc(-c3ccccn3)nn2C)n1` [Roche-Dataset for PDE10A, Compound 519], the IC50 is 1360 nM.

On to `CNc1nc2cc(NC(=O)c3c(C(=O)N4CCC4)cnn3C)ccn2n1` [Roche-Dataset for PDE10A, Compound 704], for which the concentration for half-maximal inhibition (IC50) is 7.7 nM.

Molecule `O=C(NCCc1cnc(-c2ccccc2)[nH]1)c1nc(C2CC2)ccc1Nc1cncnc1` [Roche-Dataset for PDE10A, Compound 102] had a concentration for half-maximal inhibition (IC50) of 2.11 nM.

The molecule `COCc1ccc(Nc2cncnc2)c(C(=O)Nc2ccnn2-c2ccccn2)n1` [Roche-Dataset for PDE10A, Compound 386] yielded a half-inhibitory concentration (IC50) of 1.47 nM.

The molecule `CCCCc1cc(NC(=O)c2c(C(=O)N3CCC3)cnn2C)[nH]n1` [Roche-Dataset for PDE10A, Compound 985] gave an IC50 of 4900 nM. Compared with the last molecule, the IC50 is about 3300-fold higher.

With `Cc1cccc(-c2cn3c(n2)C[C@H](NC(=O)c2c(C(=O)N(C)C4CC4)cnn2C)CC3)c1` [Roche-Dataset for PDE10A, Compound 114], the IC50 amounted to 8.53 nM.

As to `COCCN(C)C(=O)c1cnn(C)c1C(=O)Nc1ccn2cc(-c3ccnc(F)c3)nc2n1` [Roche-Dataset for PDE10A, Compound 147], the concentration for half-maximal inhibition (IC50) was 780 nM.

`CCOC(=O)c1cnn(C)c1C(=O)Nc1ccn2nc(Br)nc2c1` [Roche-Dataset for PDE10A, Compound 936]: the 50% inhibitory concentration (IC50) came to 3500 nM.

`Cc1cnccc1NC(=O)c1ccc2cc(-c3ccccc3)nn2c1` [Roche-Dataset for PDE10A, Compound 448] gave an IC50 of 563 nM.

As to `COc1cccc(-c2cn3c(n2)C[C@H](NC(=O)c2c(C(=O)N(C)C)cnn2C)CC3)c1` [Roche-Dataset for PDE10A, Compound 230], the midpoint of inhibition, the IC50, lay at 263 nM.

Regarding `O=C(NCCc1noc(Cc2ccccc2)n1)c1nc(C2CC2)cnc1Nc1cncnc1` [Roche-Dataset for PDE10A, Compound 275], the IC50 was 137 nM.

`CCN(C)c1cnc(Nc2cncnc2)c(C(=O)Nc2cnn(C)c2C(=O)NC)n1` [US8703768, 311]: 19 nM corresponded to half-maximal inhibition (IC50).

Molecule `Cn1ncc(C(=O)N2CCC2)c1C(=O)N[C@@H]1CCn2cc(-c3ccccc3OC(F)F)nc2C1` [Roche-Dataset for PDE10A, Compound 257] registered an IC50 of 6.04 nM.

The molecule `CN(C)C(=O)c1cnn(C)c1C(=O)Nc1ccc2[nH]c(-c3ccccc3)nc2c1` [Roche-Dataset for PDE10A, Compound 195] had a 50% inhibitory concentration (IC50) of 0.36 nM.

`O=C(Nc1cccc(C(=O)N2CCCC2)n1)c1nc(C2CC2)cnc1Nc1cncnc1` [Roche-Dataset for PDE10A, Compound 830]: the IC50 stood at 10 nM.

In turn, `COCCNC(=O)c1cc2[nH]c(-c3ccccc3)nc2cc1NC(=O)c1cc(C2CC2)cnc1OC` [Roche-Dataset for PDE10A, Compound 349] returned a half-inhibitory concentration (IC50) of 0.66 nM.

Turning to `Cn1nc(-c2ccccn2)cc1NC(=O)c1ccn(CC(F)(F)F)n1` [Roche-Dataset for PDE10A, Compound 662], half-maximal inhibition (IC50) required 10000 nM. Against the preceding molecule, the IC50 is about 15000-fold higher.

On to `CN(C)CCNC(=O)c1c(NC(=O)c2nc(C3CC3)cnc2Nc2cncnc2)cnn1C` [US8703768, 313], for which half-maximal inhibition (IC50) required 51 nM.

`Cn1cc(Br)c(C(=O)Nc2cc(-c3ccccn3)nn2C)n1` [Roche-Dataset for PDE10A, Compound 934]: the half-maximal inhibitory concentration (IC50) is 811 nM.

Consider `O=C(NC1CC1)c1ccsc1NC(=O)c1nc(C2CC2)ccc1Nc1cncnc1` [US8703768, 89], for which the IC50 is 0.48 nM.

For `Cc1cc(C)n2nc(CCc3nc(N4CCCC4)nn3C3CC3)nc2n1` [Roche-Dataset for PDE10A, Compound 475], the IC50 amounted to 8.2 nM.

The molecule `CN(c1nc2cc(NC(=O)c3c(C(=O)O)cnn3C)ccn2n1)C1CC1` [Roche-Dataset for PDE10A, Compound 649] showed an IC50 of 42 nM.

With `CC(C)CNC(=O)c1c(NC(=O)c2c(C(=O)N3CCC3)cnn2C)cnn1C` [Roche-Dataset for PDE10A, Compound 1069], the IC50 was found to be 462 nM. Against the preceding molecule, the IC50 is about 11-fold higher.

Molecule `COCCOc1ccc(NC(=O)c2nc(C3CC3)cnc2Nc2cncnc2)c(C(=O)NCC(C)(C)O)c1` [US8703768, 213] displayed a half-inhibitory concentration (IC50) of 0.74 nM.

Turning to `O=C(Nc1cc(Cl)ncn1)c1ccc2cc(-c3ccccc3)nn2c1` [Roche-Dataset for PDE10A, Compound 419], inhibition was half-maximal at 249 nM (IC50). Compared with the last molecule, the IC50 is about 340-fold higher.

As to `CCCn1nc(-c2ccccn2)cc1NC(=O)c1nc(C2CC2)ccc1Nc1cncnc1` [US8470820, 23], the 50% inhibitory concentration (IC50) came out at 1.68 nM.

Take `O=C1c2ccccc2C(=O)N1CCc1nc(-c2ccccc2)cs1` [Roche-Dataset for PDE10A, Compound 150]: the IC50 was determined as 342 nM. Compared with the last molecule, the IC50 is about 200-fold higher.

In the case of `Cc1nc2ccccc2nc1CCc1ncc(-c2ccccc2)[nH]1` [Roche-Dataset for PDE10A, Compound 254], the IC50 worked out at 9.25 nM.

In turn, `O=C(Nc1cn(-c2ccccn2)cn1)c1nc(C2CC2)ccc1Br` [Roche-Dataset for PDE10A, Compound 1003] gave an IC50 of 434 nM.

Regarding `Cn1ncc(C(=O)N2CCC2)c1C(=O)Nc1ccn(CC2CC2)n1` [Roche-Dataset for PDE10A, Compound 1075], the IC50 was 329 nM.

The molecule `O=C(Nc1ccccc1)c1cccc(NC(=O)c2nc(C3CC3)ccc2Nc2cncnc2)c1` [Roche-Dataset for PDE10A, Compound 556] registered a half-inhibitory concentration (IC50) of 6.79 nM.

The molecule `CSc1nc2cc(NC(=O)c3c(C(=O)N4CCC4)cnn3C)ccc2s1` [Roche-Dataset for PDE10A, Compound 840] gave an IC50 of 331 nM. This IC50 lies about 49-fold higher than the previous one.
